From the supplement of paper PMC4862054

Tests used:
Details in all cases: incubation time: 72 h
[1] = system: BT-474; test: normalised response (% of control), CellTiter-Glo; higher = more viable cells (100 = DMSO, 0 = benzethonium chloride kill control)
Summary of the method: (§1)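 A 20 µl suspension of breast cancer cells was seeded into each well of 384-well plates containing compound at 5 concentrations in 10-fold steps over a compound-specific 10,000-fold range. After 72 h incubation, CellTox Green fluorescence (485/520 nm) was read first, and CellTiter-Glo luminescence was read after 10 min at room temperature. Each plate was normalised against 0.1 % DMSO (100) and a positive kill control (0), and each value is the normalised signal at one concentration.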

[2] = system: BT-549; test: as above
Summary of the method: as §1

[3] = system: CAL-120; test: as above
Summary of the method: as §1

[4] = system: CAL-148; test: as above
Summary of the method: as §1

[5] = system: CAL-51; test: as above
Summary of the method: as §1

[6] = system: CAL-85-1; test: as above
Summary of the method: as §1

[7] = system: DU-4475; test: as above
Summary of the method: as §1

[8] = system: HCC1143; test: as above
Summary of the method: as §1

[9] = system: HCC1599; test: as above
Summary of the method: as §1

[10] = system: HCC1937; test: as above
Summary of the method: as §1

[11] = system: HDQ-P1; test: as above
Summary of the method: as §1

[12] = system: Hs578T; test: as above
Summary of the method: as §1

[13] = system: MCF-10A; test: as above
Summary of the method: as §1

[14] = system: MDA-MB-231; test: as above
Summary of the method: as §1

[15] = system: MDA-MB-436; test: as above
Summary of the method: as §1

[16] = system: MDA-MB-453; test: as above
Summary of the method: as §1

[17] = system: MDA-MB-468; test: as above
Summary of the method: as §1

[18] = system: MFM-223; test: as above
Summary of the method: as §1

[19] = system: SK-BR-3; test: as above
Summary of the method: as §1

[20] = system: BT-474; test: normalised viability (% of control), CellTiter-Blue; higher = more viable cells (100 = DMSO, 0 = benzethonium chloride kill control)
Protocol: (§2)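 DSRT, CellTiter-Blue viability, 72 h incubation. Signal is normalised to DMSO and benzethonium chloride controls. Value is the normalised response at dose 1.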

[21] = system: BT-549; test: as above
Protocol: as §2

[22] = system: CAL-120; test: as above
Protocol: as §2

[23] = system: CAL-148; test: as above
Protocol: as §2

[24] = system: CAL-51; test: as above
Protocol: as §2

[25] = system: CAL-85-1; test: as above
Protocol: as §2

[26] = system: DU-4475; test: as above
Protocol: as §2

[27] = system: HCC1143; test: as above
Protocol: as §2

[28] = system: HCC1599; test: as above
Protocol: as §2

[29] = system: HCC1937; test: as above
Protocol: as §2

[30] = system: HDQ-P1; test: as above
Protocol: as §2

[31] = system: Hs578T; test: as above
Protocol: as §2

[32] = system: MDA-MB-231; test: as above
Protocol: as §2

[33] = system: MDA-MB-436; test: as above
Protocol: as §2

[34] = system: MDA-MB-453; test: as above
Protocol: as §2

[35] = system: MDA-MB-468; test: as above
Protocol: as §2

[36] = system: MFM-223; test: as above
Protocol: as §2

[37] = system: SK-BR-3; test: as above
Protocol: as §2

Nc1nc(Cl)nc2c1ncn2[C@@H]1O[C@H](CO)[C@@H](O)[C@@H]1F [Clofarabine] (1 nM)
normalised response [1]: 101% | normalised response [2]: 94.8% | normalised response [3]: 101% | normalised response [4]: 90.5% | normalised response [5]: 79.9% | normalised response [6]: 97.4% | normalised response [7]: 99% | normalised response [8]: 96.7% | normalised response [9]: 90% | normalised response [10]: 98.1% | normalised response [11]: 98.3% | normalised response [12]: 103% | normalised response [13]: 107% | normalised response [14]: 101% | normalised response [15]: 97.4% | normalised response [16]: 106% | normalised response [17]: 94.9% | normalised response [18]: 101% | normalised response [19]: 99.1% | normalised viability [20]: 89.5% | normalised viability [21]: 93.7% | normalised viability [22]: 90.4% | normalised viability [23]: 91% | normalised viability [24]: 108% | normalised viability [25]: 87% | normalised viability [26]: 101% | normalised viability [27]: 87.1% | normalised viability [28]: 101% | normalised viability [29]: 93.7% | normalised viability [30]: 118% | normalised viability [31]: 116% | normalised viability [32]: 90.3% | normalised viability [33]: 100% | normalised viability [34]: 107% | normalised viability [35]: 111% | normalised viability [36]: 93% | normalised viability [37]: 91%

CCN(CC)CCOc1ccc(C(=C(Cl)c2ccccc2)c2ccccc2)cc1 [Clomifene] (1 nM)
normalised response [1]: 106% | normalised response [2]: 101% | normalised response [3]: 95.8% | normalised response [4]: 109% | normalised response [5]: 102% | normalised response [6]: 104% | normalised response [7]: 104% | normalised response [8]: 105% | normalised response [9]: 99.8% | normalised response [10]: 96.9% | normalised response [11]: 99.2% | normalised response [12]: 101% | normalised response [13]: 95.8% | normalised response [14]: 106% | normalised response [15]: 111% | normalised response [16]: 106% | normalised response [17]: 98.8% | normalised response [18]: 99.6% | normalised response [19]: 108% | normalised viability [20]: 95.6% | normalised viability [21]: 116% | normalised viability [22]: 90.2% | normalised viability [23]: 105% | normalised viability [24]: 94.5% | normalised viability [25]: 89% | normalised viability [26]: 92.8% | normalised viability [27]: 89.7% | normalised viability [28]: 79.7% | normalised viability [29]: 97.7% | normalised viability [30]: 125% | normalised viability [31]: 123% | normalised viability [32]: 104% | normalised viability [33]: 111% | normalised viability [34]: 102% | normalised viability [35]: 103% | normalised viability [36]: 101% | normalised viability [37]: 96.7%

C[C@@H]1C[C@H]2[C@@H]3CCC4=CC(=O)C=C[C@]4(C)[C@@]3(F)[C@@H](O)C[C@]2(C)[C@@]1(O)C(=O)CO [Dexamethasone] (1 nM)
normalised response [1]: 107% | normalised response [2]: 102% | normalised response [3]: 94.3% | normalised response [4]: 89.2% | normalised response [5]: 116% | normalised response [6]: 102% | normalised response [7]: 100% | normalised response [8]: 96.2% | normalised response [9]: 100% | normalised response [10]: 98.9% | normalised response [11]: 104% | normalised response [12]: 107% | normalised response [13]: 90% | normalised response [14]: 112% | normalised response [15]: 115% | normalised response [16]: 102% | normalised response [17]: 94.6% | normalised response [18]: 94.7% | normalised response [19]: 95.6% | normalised viability [20]: 119% | normalised viability [21]: 157% | normalised viability [22]: 82.3% | normalised viability [23]: 109% | normalised viability [24]: 95.6% | normalised viability [25]: 107% | normalised viability [26]: 96.6% | normalised viability [27]: 91.8% | normalised viability [28]: 84% | normalised viability [29]: 82% | normalised viability [30]: 92.9% | normalised viability [31]: 93.5% | normalised viability [32]: 126% | normalised viability [33]: 85.8% | normalised viability [34]: 94.3% | normalised viability [35]: 106% | normalised viability [36]: 91.6% | normalised viability [37]: 111%

CC(C)C(=O)Nc1ccc([N+](=O)[O-])c(C(F)(F)F)c1 [Flutamide] (1 nM)
normalised response [1]: 98.5% | normalised response [2]: 98.5% | normalised response [3]: 103% | normalised response [4]: 96.8% | normalised response [5]: 113% | normalised response [6]: 96.7% | normalised response [7]: 97% | normalised response [8]: 93.2% | normalised response [9]: 97.4% | normalised response [10]: 94.7% | normalised response [11]: 101% | normalised response [12]: 98.2% | normalised response [13]: 103% | normalised response [14]: 99% | normalised response [15]: 103% | normalised response [16]: 113% | normalised response [17]: 96% | normalised response [18]: 98.4% | normalised response [19]: 105% | normalised viability [20]: 96.8% | normalised viability [21]: 86.2% | normalised viability [22]: 93.6% | normalised viability [23]: 114% | normalised viability [24]: 109% | normalised viability [25]: 96.8% | normalised viability [26]: 100% | normalised viability [27]: 90.7% | normalised viability [28]: 119% | normalised viability [29]: 65.1% | normalised viability [30]: 118% | normalised viability [31]: 134% | normalised viability [32]: 90.2% | normalised viability [33]: 94.7% | normalised viability [34]: 104% | normalised viability [35]: 96.1% | normalised viability [36]: 90.4% | normalised viability [37]: 98.1%
